Source: US20110059076A1, “HUMAN SERUM ALBUMIN LINKERS AND CONJUGATES THEREOF” (priority 2008, published 2011)
“Also recorded” adds a separate entry of the source.

What was measured:
[1] = test system: BT-474-M3 shPTEN xenografts; assay: BT-474-M3 shPTEN xenografts (reduced PTEN activity); assay type: in vivo, nude mice; conditions: 30 mg/kg B2B3-1 every 3 days or 10 mg/kg trastuzumab every week, i.p.
Protocol: (§4) ShRNA technology is applied to knock out the activity of the tumor suppressor gene phosphatase and tensin homolog (PTEN) in BT-474-M3 breast cancer cells. Briefly, cultured BT-474-M3 cells are transfected with shPTEN or shControl RNA by retroviral transfection. Transfected cells with reduced PTEN are selected using FACS and subsequently injected subcutaneously into the right flank of nude mice to establish xenograft tumors. Cells transfected with a control vector are injected into the left flank of the same mouse. […] All injections are done i.p.

[2] = test system: 10 tumor xenograft models; assay: activity in 10 tumor xenograft models versus ErbB2 expression; assay type: in vivo; conditions: low to high ErbB2
[3] = test system: AKT phosphorylation in BT-474-M3 cells; assay: HRG-induced AKT phosphorylation ELISA in BT-474-M3; assay type: cell-based, human; conditions: BT-474-M3, dose titration 24 hours, 5 nM HRG 1β EGF domain 10 minutes
[4] = test system: human BT-474-M3 xenografts; assay: dose response in BT-474-M3 breast cancer xenograft model; assay type: in vivo, nude mice; conditions: 0.3, 1, 3, 10, 30 or 90 mg/kg i.p. every 3 days, 12 doses
Protocol: All doses are administered interperitoneally (i.p.). Tumor size is measured twice a week and the corresponding tumor volume is calculated.

[5] = test system: control BT-474-M3 breast cancer cell xenografts; assay: BT-474-M3 shControl xenografts; assay type: in vivo, nude mice; conditions: 30 mg/kg B2B3-1 every 3 days or 10 mg/kg trastuzumab every week, i.p.
Protocol: as §4

[6] = test system: AKT phosphorylation in ZR75-30 cells; assay: HRG-induced AKT phosphorylation ELISA in ZR75-30; assay type: cell-based, human; conditions: ZR75-30, dose titration 24 hours, 5 nM HRG 1β EGF domain 10 minutes
[7] = target: T1, recombinant extracellular domain of ErbB2 (Homo sapiens, UniProt P04626); assay: specificity competition ELISA on ErbB2-coated plates; conditions: half-maximal binding concentration of B2B3-1
T1 construct: Plates are coated with the recombinant extracellular domain of either ErbB2 or ErbB3
Excerpt: (§1) Plates are coated with the recombinant extracellular domain of either ErbB2 or ErbB3.

[8] = test system: ErbB3 phosphorylation in BT-474-M3 cells; assay: HRG-induced ErbB3 phosphorylation ELISA in BT-474-M3; assay type: cell-based, human; conditions: BT-474-M3, dose titration 24 hours, 5 nM HRG 1β EGF domain 10 minutes
Protocol: (§2) Except as noted, ELISA reagents for total and phospho-ErbB3 ELISAs are purchased from R&D Systems as DUOSET kits. 96-well NUNC MAXISORB plates are coated with 50 μl of an antibody and incubated overnight at room temperature. Next morning, plates are washed 3 times with 1000 μl/well in a BIOTEK plate washer with Dulbecco's phosphate buffered saline without calcium or magnesium (PBS) with added Tween detergent (PBST) (0.05% Tween-20). […] The plates are washed 3 times with 1000 μl/well in the BIOTEK plate washer with PBST. Cells are grown at 37° C. and 5% carbon dioxide, washed with cold PBS, then harvested with mammalian protein extract (MPER) lysis buffer (Pierce, 78505) to which 150 mM NaCl, 5 mM sodium pyrophosphate, 10 uM bpV (phen), 50uM phenylarsine, 1 mM sodium orthovanadate, and protease inhibitor cocktail (Sigma, P2714) is added. 50 μL of cell lysates and standards diluted in 50% Lysis buffer and 1% BSA are used in duplicates for further processing. Samples are incubated for 2hrs at 4° C. on a plate shaker and washed as before. About 50 μl of a detection antibody diluted in 2% BSA, PBST is added and incubated for about 1-2 hrs at room temperature. […] About 50 μL of SUPERSIGNAL ELISA Pico (Thermo Scientific) substrate is added and the plate is read using a FUSION plate reader. […]

[9] = test system: wild type ADRr xenografts; assay: wild type ADRr breast cancer xenograft model; assay type: in vivo, nude mice; conditions: 30 mg/kg every 3 days
[10] = test system: ErbB3 phosphorylation in ZR75-1 breast cancer cells; assay: agonistic activity: pErbB3 ELISA in ZR75-1 cells without HRG; assay type: cell-based; conditions: serum starved ZR75-1 cells, 1 μM, 24 hours, no HRG
Protocol: as §2
Cells are lysed and the pErbB3 content of the lysates is assessed by ELISA generally as described above.

[11] = test system: p27^kip1 in BT474-M3 breast tumor xenografts; assay: p27kip1 staining of xenograft tumors; assay type: in vivo; conditions: 30 mg/kg every 3 days, 4 doses
[12] = test system: Calu-3 (human lung adenocarcinoma) xenograft; assay: Calu-3 xenograft model; assay type: in vivo, mice; conditions: Calu-3, 30 mg/kg every 3 days
Excerpt: (§3) Calu-3 (human lung adenocarcinoma; FIG. 17A), SKOV-3 (human ovarian adenocarcinoma; FIG. 17B), NCI-N87 (human gastric carcinoma; FIG. 17C), ACHN (human kidney adenocarcinoma; FIG. 17D), and MDA-MB-361 (human breast adenocarcinoma; FIG. 17E) xenograft model are shown.

[13] = target: T2, recombinant extracellular domain of ErbB3 (Homo sapiens, UniProt P21860); assay: specificity competition ELISA on ErbB3-coated plates; conditions: half-maximal binding concentration of B2B3-1
T2 construct: Plates are coated with the recombinant extracellular domain of either ErbB2 or ErbB3
Excerpt: as §1

[14] = test system: MALME-3M melanoma cells (ErbB2 and ErbB3 receptors); assay: cell binding by flow cytometry, apparent binding affinity; conditions: MALME-3M cells
Protocol: Cell binding is assessed by flow cytometry and apparent binding affinities are determined for each molecule. Control cells are incubated with secondary antibody alone.

[15] = test system: signaling proteins in BT474 breast cancer cells; assay: Western blot of signaling proteins in BT474 cells; assay type: cell-based; conditions: BT474, dose range 24 hours, heregulin stimulation
Protocol: Levels of pErbB2, pErbB3, pErk and pAKT and their corresponding total protein levels are determined on cell lysates by Western blot analysis.

[16] = test system: Ki67 in BT474-M3 breast tumor xenografts; assay: Ki67 staining of xenograft tumors; assay type: in vivo; conditions: 30 mg/kg every 3 days, 4 doses
[17] = test system: ErbB3 phosphorylation in ZR75-30 cells; assay: HRG-induced ErbB3 phosphorylation ELISA in ZR75-30; assay type: cell-based, human; conditions: ZR75-30, dose titration 24 hours, 5 nM HRG 1β EGF domain 10 minutes
Protocol: as §2

[18] = test system: ACHN (human kidney adenocarcinoma) xenograft; assay: ACHN xenograft model; assay type: in vivo, mice; conditions: ACHN (4.5×10^4 ErbB2 receptors/cell), 30 mg/kg every 3 days
Excerpt: as §3

ADRr-E2 xenografts = assay: ADRr-E2 (ErbB2 over-expressing) xenograft model; assay type: in vivo, nude mice; conditions: ADRr-E2, 30 mg/kg every 3 days
Excerpt: ErbB2 is over-expressed in ADRr breast cancer cells using a retroviral expression system. Transfected cells expressing high levels of ErbB2 (ADRr-E2) are selected using FACS and subsequently injected subcutaneously into nude mice to establish xenograft tumors.

[19] = test system: MDA-MB-361 (human breast adenocarcinoma) xenograft; assay: MDA-MB-361 xenograft model; assay type: in vivo, mice; conditions: MDA-MB-361, 30 mg/kg every 3 days
Excerpt: as §3

B2B3-1: bispecific scFv antibody fusion: anti-ErbB3 scFv H3 and anti-ErbB2 scFv B1D2 joined by a modified human serum albumin (HSA) linker
size of tumors formed by BT-474-M3 cells lacking expression of PTEN [1]: promoted a reduction
xenograft response in relation to ErbB2 expression levels [2]: correlates positively
inhibition of HRG induced AKT phosphorylation [3]: inhibits
complete regressions [4]: Complete regressions were observed in each of the B2B3-1 treatment groups except mice treated with the lowest dose
tumor size compared to the control group [4]: significant reduction
size of tumors formed by control BT-474-M3 cells [5]: promoted a reduction
inhibition of HRG induced AKT phosphorylation [6]: inhibits
blocking of binding to ErbB2-coated plates by soluble extracellular domains of EGFR, ErbB2, ErbB3 or ErbB4 [7]: only soluble ErbB2 extracellular domain blocked; also recorded: binds specifically
inhibition of HRG induced ErbB3 phosphorylation [8]: inhibits
xenograft response [9]: no response; also recorded: non-responder
levels of phosphorylated ErbB3 with B2B3-1 alone (agonistic activity) [10]: comparable to the levels in untreated cells; also recorded: does not stimulate ErbB3 phosphorylation
nuclear staining for p27^kip1 compared to HSA control tumors [11]: Increased nuclear staining; also recorded: translocation of p27^kip1 to the nucleus
tumor size reduction [12]: efficacious
blocking of binding to ErbB3-coated plates by soluble extracellular domains of EGFR, ErbB2, ErbB3 or ErbB4 [13]: only soluble ErbB3 extracellular domain blocked; also recorded: binds specifically
apparent binding affinity KD [14]: significant increase in apparent binding affinity
levels of pErbB2 [15]: reduced in a dose-dependent manner
levels of pErbB3 [15]: reduced in a dose-dependent manner
Ki67 expression compared to HSA treated tumors [16]: reduced expression pattern; also recorded: reduction
inhibition of HRG induced ErbB3 phosphorylation [17]: inhibits
tumor size reduction [18]: worked less well
xenograft response (ADRr-E2 xenografts): responded; also recorded: responder
tumor size reduction [19]: efficacious
